Laboratory results reported in patent US20090036540A1, “Guanylhydrazones in Methods of Treatment or Diagnosis as Modulators of Signal Transduction” (Cytokine PharmaSciences, Inc., priority 2003, published 2009).

How the values were obtained:
[1] = test system: Peripheral Blood Mononuclear Cells; experiment: PepChip kinome array: in vitro phosphorylation of peptide array by lysates of LPS-stimulated PBMCs; format: cell-based, human
Description: Peripheral Blood Mononuclear Cells (PBMCs) were isolated from peripheral blood from healthy volunteers using standard density-gradient centrifugation over Ficoll-Paque Plus (Amersham Pharmacia Biotech AB, Uppsala, Sweden) after washing in resuspension in IMDM supplemented with 10% FBS, penicillin, streptomycin and amphotericin (hereafter referred to as complete IMDM).
For kinome array samples, 10^7 PBMCs were suspended in 5 ml media (IMDM supplemented with 1.0% human serum). LPS stimulation consisted of a […] (37° C., 5% CO2) with 100 ng/ml LPS (E. coli, serotype 0111:B4). CNI treated PBMCs were maintained in media dosed with 1.0 μM CNI-1493 (Cytokine PharmaSciences, Inc.) 1 hour before and during incubation for LPS stimulation. Stimulations were terminated by an ice-cold PBS wash. PBMCs were lysed in 200 μl cell lysis buffer (20 mM Tris-HCl (pH 7.5), 150 mM NaCl, 1 mM Na2EDTA, 1 mM EGTA, 1% Triton, 2.5 mM sodium pyrophosphate, 1 mM MgCl2, 1 mM beta-glycerophosphate, 1 mM Na3VO4, 1 mM NaF, 1 μg/ml leupeptin, 1 μg/ml aprotinin, 1 mM PMSF) and the volume of the cell lysate were equalised with dH2O. The cell lysates were subsequently cleared on a 0.22 μm filter. PepChip incubation mix was produced by adding 10 μl of filter-cleared activation mix (50% glycerol, 50 μM ATP, 0.05% v/v Brij-35, 0.25 mg/ml BSA, ^33P-γ-ATP (1000 kBq)). Next, the PepChip mix is added onto the chip and the chip is kept at 37° C. in a humidified stove for 90 minutes. Subsequently, the PepChip was washed once with TBST, twice in 2M NaCl and twice in demineralised H2O and air-dry the PepChip slips. The experiments were performed three times in duplicate. The average inter-experimental variance in relative values was less than 5% for all spots.
The chips were exposed to a phosphoimager plate for 72 hours and the spots were analysed on AIDA analysing software. For graphical visualisation of the spots in FIG. 2 the data of four arrays was averaged to eliminate false positives.

4/4 macrophages = experiment: Cytotoxic effect in 4/4 macrophages; format: cell-based, murine; details: Semapimod concentrations ≦1 μM
Raf kinase = experiment: Raf in vitro kinase assay (pMek immunoblot); format: biochemical; details: active Raf kinase, 1 μM Semapimod for 5 and 10 minutes
Description: A commercially available in vitro kinase kit (Upstate, cat#: 17-360) was used to study the direct effect of Semapimod on Raf kinase activity. […] Furthermore, active Raf together with Mek, without Semapimod, served as a positive control. Active Raf without the Mek-substrate, left untreated, served as a negative control. The in vitro kinase reaction was performed at 30 C.° for 20 minutes. Sample buffer was added to terminate the reaction, and loaded on […] SDS-PAGE. The immunoblot was analyzed for pMek expression.
Pan-Raf protein expression was analyzed to test for equal loading. Two experiments were performed and similar results were obtained.

[2] = lysates of Semapimod-treated, lipopolysaccharide-stimulated PBMCs

Raf kinase activity (Raf kinase): inhibited | pMek1/2 expression in in vitro kinase assay (Raf kinase; inactive Mek-substrate): reduced pMek1/2 expression
Structure (SMILES): C/C(=N\NC(=N)N)c1cc(NC(=O)CCCCCCCCC(=O)Nc2cc(/C(C)=N/NC(=N)N)cc(/C(C)=N/NC(=N)N)c2)cc(/C(C)=N/NC(=N)N)c1 [Semapimod]
LPS + CNI: peptide phosphorylation, Kinase not given, Substrate GS ([1]; PBMC lysate, 1.0 μM CNI-1493, 100 ng/ml LPS, Control 9758, LPS 17052): 24415 | LPS + CNI: peptide phosphorylation, Kinase p38, Substrate MAPKAP2 ([1]; PBMC lysate, 1.0 μM CNI-1493, 100 ng/ml LPS, Control 10168, LPS 21440): 1150 | LPS + CNI: peptide phosphorylation, Kinase PKC, Substrate c-Src ([1]; PBMC lysate, 1.0 μM CNI-1493, 100 ng/ml LPS, Control 10728, LPS 10416): 17000 | LPS + CNI: peptide phosphorylation, Kinase PKC, Substrate c-RAF ([1]; PBMC lysate, 1.0 μM CNI-1493, 100 ng/ml LPS, Control 10764, LPS 13640): 9522 | LPS + CNI: peptide phosphorylation, Kinase not given, Substrate Tau ([1]; PBMC lysate, 1.0 μM CNI-1493, 100 ng/ml LPS, Control 15846, LPS 10500): 27753 | LPS + CNI: peptide phosphorylation, Kinase v-Fps, Substrate Caldesmon ([1]; PBMC lysate, 1.0 μM CNI-1493, 100 ng/ml LPS, Control 16002, LPS 22800): 31584 | LPS + CNI: peptide phosphorylation, Kinase and Substrate not given ([1]; PBMC lysate, 1.0 μM CNI-1493, 100 ng/ml LPS, Control 16320, LPS 822): 300 | LPS + CNI: peptide phosphorylation, Kinase not given, Substrate GS ([1]; PBMC lysate, 1.0 μM CNI-1493, 100 ng/ml LPS, Control 16920, LPS 19500): 23664 | LPS + CNI: peptide phosphorylation, Kinase CKII, Substrate GS ([1]; PBMC lysate, 1.0 μM CNI-1493, 100 ng/ml LPS, Control 17680, LPS 5350): 13120 | LPS + CNI: peptide phosphorylation, Kinase Lck, Substrate Tec ([1]; PBMC lysate, 1.0 μM CNI-1493, 100 ng/ml LPS, Control 18096, LPS 13824): 300 | LPS + CNI: peptide phosphorylation, Kinase PKC, Substrate Trop ([1]; PBMC lysate, 1.0 μM CNI-1493, 100 ng/ml LPS, Control 18786, LPS 23230): 40000 | LPS + CNI: peptide phosphorylation, Kinase not given, Substrate GS ([1]; PBMC lysate, 1.0 μM CNI-1493, 100 ng/ml LPS, Control 20736, LPS 20592): 26477 | LPS + CNI: peptide phosphorylation, Kinase p34cdc2, Substrate Lamin B1 ([1]; PBMC lysate, 1.0 μM CNI-1493, 100 ng/ml LPS, Control 21000, LPS 11165): 300 | LPS + CNI: peptide phosphorylation, Kinase not given, Substrate EIF4F ([1]; PBMC lysate, 1.0 μM CNI-1493, 100 ng/ml LPS, Control 21000, LPS 25200): 24624 | LPS + CNI: peptide phosphorylation, Kinase PKC, Substrate BICKS ([1]; PBMC lysate, 1.0 μM CNI-1493, 100 ng/ml LPS, Control 23400, LPS 38086): 15980 | LPS + CNI: peptide phosphorylation, Kinase PKC, Substrate MARCKS ([1]; PBMC lysate, 1.0 μM CNI-1493, 100 ng/ml LPS, Control 23714, LPS 16401): 13426 | LPS + CNI: peptide phosphorylation, Kinase not given, Substrate MBP ([1]; PBMC lysate, 1.0 μM CNI-1493, 100 ng/ml LPS, Control 26208, LPS 36442): 51888 | LPS + CNI: peptide phosphorylation, Kinase not given, Substrate Vimentin ([1]; PBMC lysate, 1.0 μM CNI-1493, 100 ng/ml LPS, Control 26240, LPS 30889): 59840 | LPS + CNI: peptide phosphorylation, Kinase not given, Substrate MBP ([1]; PBMC lysate, 1.0 μM CNI-1493, 100 ng/ml LPS, Control 26481, LPS 23852): 51414 | LPS + CNI: peptide phosphorylation, Kinase p42/44, Substrate MBP ([1]; PBMC lysate, 1.0 μM CNI-1493, 100 ng/ml LPS, Control 28710, LPS 536): 23296 | LPS + CNI: peptide phosphorylation, Kinase not given, Substrate GS ([1]; PBMC lysate, 1.0 μM CNI-1493, 100 ng/ml LPS, Control 31500, LPS 31050): 51102 | LPS + CNI: peptide phosphorylation, Kinase p42/44, Substrate MBP ([1]; PBMC lysate, 1.0 μM CNI-1493, 100 ng/ml LPS, Control 33814, LPS 14514): 26352 | LPS + CNI: peptide phosphorylation, Kinase PKA, Substrate MARCKS ([1]; PBMC lysate, 1.0 μM CNI-1493, 100 ng/ml LPS, Control 34295, LPS 31647): 62514 | LPS + CNI: peptide phosphorylation, Kinase not given, Substrate c-Src ([1]; PBMC lysate, 1.0 μM CNI-1493, 100 ng/ml LPS, Control 34410, LPS 2470): 319 | LPS + CNI: peptide phosphorylation, Kinase not given, Substrate Vimentin ([1]; PBMC lysate, 1.0 μM CNI-1493, 100 ng/ml LPS, Control 37760, LPS 18020): 44200 | LPS + CNI: peptide phosphorylation, Kinase not given, Substrate MBP ([1]; PBMC lysate, 1.0 μM CNI-1493, 100 ng/ml LPS, Control 38634, LPS 36464): 38354 | LPS + CNI: peptide phosphorylation, Kinase not given, Substrate MBP ([1]; PBMC lysate, 1.0 μM CNI-1493, 100 ng/ml LPS, Control 40793, LPS 36600): 55572 | LPS + CNI: peptide phosphorylation, Kinase PKC, Substrate MBP ([1]; PBMC lysate, 1.0 μM CNI-1493, 100 ng/ml LPS, Control 47940, LPS 18624): 15680 | LPS + CNI: peptide phosphorylation, Kinase not given, Substrate MLC-2 ([1]; PBMC lysate, 1.0 μM CNI-1493, 100 ng/ml LPS, Control 48400, LPS 53482): 33674 | LPS + CNI: peptide phosphorylation, Kinase not given, Substrate MBP ([1]; PBMC lysate, 1.0 μM CNI-1493, 100 ng/ml LPS, Control 60630, LPS 62900): 65076 | LPS + CNI: peptide phosphorylation, Kinase PKA, p42/44, Substrate CgA ([1]; PBMC lysate, 1.0 μM CNI-1493, 100 ng/ml LPS, Control 62088, LPS 548): 6700 | capacity to phosphorylate peptides representing consensus sequences for MAP kinase family members [1, 2]: strongly impaired | phosphorylation of a peptide representing a consensus phosphorylation site for MEK kinase [1, 2]: inhibited | phosphorylation of a peptide representing the PKC consensus phosphorylation site in c-Raf [1, 2]: not impaired | cytotoxic effect (4/4 macrophages): did not have a cytotoxic effect
